The values that follow come from patent publication US12631620B2, “Methods of generating organoids for high throughput screening of drugs” (Yissum Research Development Company of the Hebrew …, priority 2019, dated 2026).

The subject of data set [1] is E6/E7^LOW human hepatocytes. As to the kind of experiment: E6/E7LOW human hepatocyte viability assessment (LIVE/DEAD Cytotoxicity kit). Format: cell-based. The settings on record: 24 hours. The protocol:
E6/E7^LOW human hepatocyte were cultured with different concentrations of compounds dissolved in culture medium for 24 hours. Cell viability was subsequently determined using LIVE/DEAD Cytotoxicity kit (Molecular Probes, USA) according to manufacturer directions. Briefly, cultures were incubated for 30 minutes with 2 μM calcein AM and 3 μM ethidium homodimer-1. Live cells were positive for green fluorescence due to hydrolysis of the acetoxymethyl ester group by intracellular esterases. Dead cells were positive for red fluorescence due to ethidium homodimer-1 binding intracellular DNA, possible in […]. Cellular viability was expressed as live over dead ratio and normalized based on negative (DMSO/DDW/EtOH) and positive (0.1% Saponin) controls. Fluorescence micrographs were analyzed for total fluorescence using ImageJ for 12 repeats for each sample. TC50 and TC20 concentrations were calculated using MATLAB® Curve Fitting Tool. Results were fitted to a sigmoidal curve (Prentice, 1976; Wenner et al., 2011). Error bars indicate ±SE.

A further data set deals with E6/E7^LOW hepatocytes. On the procedure: According to some embodiments of the invention there is a sensor-integrated liver on chip array in which oxygen is monitored using two-frequency phase modulation of tissue-embedded phosphorescent microprobes, while glucose, lactate and temperature are measured in real time using microfluidic electrochemical sensors. Such a microphysiological platform permits the calculation of dynamic changes in metabolic fluxes around central carbon metabolism, producing a unique metabolic fingerprint of the liver's response to stimuli.

Data set [2] relates to E6/E7^LOW human hepatocytes. As to the kind of experiment: Steatosis and phospholipidosis, HCS LipidTOX detection kit, hepatocyte cultures. Format: cell-based. The protocol: Quantification of Apoptotic index was performed using DeadEnd™ fluorometric TUNEL System (Promega) according to manufacturer directions. Briefly, cells were treated with TC20 concentrations of compounds dissolved in culture medium for 24 hours, and subsequently fixed in 4% Paraformaldehyde (PFA). Cells were then permeabilized and exposed to fluorescein-12-dUTP and terminal deoxynucleotidyl transferase (TdT). The reaction was subsequently stopped and the cells counterstained with 1 μg/mL Hoechst 33258. Apoptotic cells were positive for green fluorescence in the nucleus. Percentage apoptosis was defined as the number of TUNEL positive nuclei normalized to Hoechst 33258 positive nuclei. Quantification of Steatosis was performed using HCS LipidTOX™ Phospholipidosis and Steatosis Detection Kit (ThermoFisher). Briefly, differentiated cells were incubated with different concentrations of compounds dissolved in culture medium and 1× Phospholipidosis Detection Reagent for 48 hours, subsequently fixed in 4% PFA. Cells were then stained with 1× LipidTOX™ for 20 minutes and counterstained with 1 μg/mL Hoechst 33258. Staining intensity was normalized to number of Hoechst 33258 positive nuclei. Quantification of Bile Secretion was performed using 5(6)-carboxy-2′,7′-dichlorofluorescein diacetate (CDFDA) staining. Briefly, differentiated cells were incubated with different concentrations of compounds dissolved in culture medium for 24 hours. Cells were then treated with 10 μg/mL CDFDA and 1 μg/mL Hoechst 33342 for 30 minutes. Incubation medium was removed and cultures washed with ice-cold PBS containing calcium and magnesium. Staining intensity was normalized to number of Hoechst 33342 positive nuclei. Analysis excluded Intracellular CDFDA staining based on intensity and phase images. All quantifications were made in comparison to cells treated with melatonin as negative control.
Quantification of Apoptotic index was performed using DeadEnd™ fluorometric TUNEL System (Promega) according to manufacturer directions. Briefly, cells were treated with TC20 concentrations of compounds dissolved in culture medium for 24 hours, and subsequently fixed in 4% Paraformaldehyde (PFA). Cell were then permeabilized and exposed to fluorescein-12-dUTP and terminal deoxynucleotidyl transferase (TdT). The reaction was subsequently stopped and the cells counterstained with 1 μg/mL Hoechst 33258. Apoptotic cells were positive for green fluorescence in the nucleus. […] Quantification of Steatosis was performed using HCS LipidTOX™ Phospholipidosis and Steatosis Detection Kit (ThermoFisher). […] Quantification of Bile Secretion was performed using 5(6)-carboxy-2′,7′-dichlorofluorescein diacetate (CDFDA) staining. […] All quantifications were made in comparison to cells treated with melatonin as negative control.

“And” between values parts separate entries of the source, which are not always exact repeats. Equal values may be shown once.

For the compound `Cc1cn([C@H]2C=C[C@@H](CO)O2)c(=O)[nH]c1=O` [Stavudine], in data set [1], the TC50 is 800 µM and 800 ± 60 µM. In the data set on E6/E7^LOW hepatocytes, the ATP production result was “relatively unchanged”; the direct mitochondrial damage entry is on record as “no indication of direct mitochondrial damage”; the “metabolic fluxes (lipogenesis, glycolysis)” value is “transient increase in lipogenesis followed by global suppression of both glycolysis and lipogenesis”. The compound further displayed an increase in lipogenesis with E6/E7^LOW hepatocytes (flux balance analysis, below threshold of cellular damage, Valproate sustained, Stavudine transient) of 5%. In the data set on E6/E7^LOW hepatocytes (human), the “time to onset of slow progressive damage post-exposure” value is 15 to 20 h. The phospholipidosis result in data set [2] is recorded as “not”. Moreover, the neutral lipids entry in data set [2] (p<0.001, n=4) was “strong and significant increase”.
